The record followed here is patent publication US20220110846A1, “EMOLLIENT AND CLEANSING AGENT” (Oleon NV, priority 2020, published 2022).

Assay [1] relates to Candida albicans, DSM 1386. In words: Minimum inhibitory concentration (ISO 20776-1:2019). It is filed as cell-based. Here is the method: (§1) Preservatives used were phenoxyethanol and benzyl alcohol.
(§2) Micro-organisms used were: • Staphylococcus aureus, DSM 799; • Candida albicans, DSM 1386.
(§3) Two samples were prepared comprising each 90 wt % of combination 1 and 10 wt % of respectively phenoxyethanol and benzyl alcohol.
(§4) Two comparative samples comprising 100 wt % of respectively phenoxyethanol and benzyl alcohol were also prepared.
(§5) To evaluate the boosting antimicrobial property of the combination according to the invention, the minimum inhibitory concentration (MIC) was determined according to a method based on standard ISO 20776-1:2019.

Assay [2] has as its system Staphylococcus aureus, DSM 799. The assay is described as above. It is filed as cell-based. Here is the method: as §1, §2, §3, §4, §5

Structures are written as SMILES.

With `OCc1ccccc1` [Benzyl alcohol, benzyl alcohol], in assay [1], the “MIC, Candida albicans” value came to 0.30%. Moreover, the “MIC, Staphylococcus aureus” value in assay [2] is 0.40%.
